“And” between values parts separate entries of the source, which are not always exact repeats. Equal entries are not always repeated. Where two headings read alike, the source gives them in different places.
Columns and labels:
[1] = test system: native GnRH peptide; assay type: in vivo, Copenhagen rats; conditions: for anti-GnRH antibodies titers: 750 μg total peptide, fortnightly s.c.
[2] = test system: prostate; test: Prostate weight evaluation at slaughter (100 days), treatment effect; assay type: in vivo, Copenhagen rats; conditions: mean prostate weight vs placebo at slaughter (100 days); healthy adult rats, 750 μg total peptide
[3] = test system: testicles; test: Testicles weight evaluation at slaughter (100 days), treatment effect; assay type: in vivo, Copenhagen rats; conditions: mean testicles weight vs placebo at slaughter (100 days); healthy adult rats, 750 μg total peptide
[4] = test system: testosterone; test: Testosterone levels determination / testosterone ablation after immunization; assay type: in vivo; conditions: oily adjuvant (Montanide type); 2 immunizations in prepuberous animals, 3 or 4 immunizations in adult animals

| Sequence | seroconversion (anti-GnRH) ([1]; after the first immunization, s.c., Montanide adjuvant) | Effect on Prostate (Etreatment=1−(Ptreatment/Pplacebo)) [2] | Effect on Testicles (Etreatment=1−(Ptreatment/Pplacebo)) [3] | seroconversion (anti-GnRH) ([1]; after the fourth immunization, oily adjuvant (Montanide type)) | seroconversion (anti-GnRH) ([1]; after the third immunization, s.c., Montanide adjuvant) | anti-GnRH response relative to TT-GnRHm1 variant ([1]; doses equal to the TT-GnRHm1 variant) | highest anti-GnRH antibodies titers reached ([1]; over the whole experiment (5 immunizations, 100 days)) | testosterone ablation [4] | anti-GnRH antibodies titers ([1]; after 75 days of the beginning of experiment) | anti-GnRH antibodies titers ([1]; after 100 days / at the end of the experiment) |
| --- | --- | --- | --- | --- | --- | --- | --- | --- | --- | --- |
| IPGVAYTSPEVAWVGGGGQHWSYPLRP (GnRHm1 bonded at its amino-terminal end to the peptide P48 of the protein P64K of Neisseria meningitidis) [P48-P64K-GnRHm1] | 100% and 90% | 0.28 | 0.49 |  |  |  |  |  |  |  |
| QHWSYPLRPGGGQYIKANSKFIGITEL (Chemical synthesis of the peptide.GnRHm1Tox.) [GnRHm1-TT] |  | 0.41 | 0.43 | 90% | 90% | 10 times weaker | 1/1000 | potent effect |  |  |
| QYIKANSKFIGITELGGQ HWSYPLRPG (QYIKANSKFIGITELGGQHWSYPLRPG; GnRHm1 bonded at its amino-terminal end to epitope 830-844 of the tetanus toxoid) [TT-GnRHm1] |  | 0.42 | 0.55 |  |  |  |  |  | 1/6000 | 1/12000 |

Source: patent US8999931B2, “Pharmaceutical composition using gonadotropin-releasing hormone (GNRH) combined variants as immunogen” (Centro de Ingenieria Genetica y Biotecnologia, priority 2008, dated 2015)
